Laboratory results as given in patent US20250367302A1, “SMALL MOLECULE DRUG-OLIGONUCLEOTIDE CONJUGATE AND USE THEREOF” (SHANGHAI JIAO TONG UNIVERSITY, priority 2022, published 2025).
In the oligonucleotide strings, read from the 5' end, every base follows the letter of its sugar. An asterisk marks phosphorothioate; unmarked linkages are phosphodiester. Other units and linkages are bracketed, terminal groups are in braces. A string of capitals states the bases alone. d = 2'-deoxy (DNA); r = 2'-OH (RNA)

How the values were obtained:
NFKBIZ mRNA = NFKBIZ mRNA expression by RT-qPCR in LPS-stimulated HCECs; format: cell-based, human; details: LPS-stimulated (100 ng/mL) HCECs, 10 μM ASO or siRNA, without transfection reagent, 6 h + 48 h
Protocol: HCECs were inoculated in a 6-well plate at a density of 1×10^5 cells/well and cultured until adherence. The cells were then stimulated with 100 ng/mL lipopolysaccharide (LPS) overnight. After removing the supernatant, 1 mL of Opti-MEM medium containing ASONFKBIZ-h, ASONFKBIZ-h+Lipofectamine2000 (Lipo2000), and CsA-ASONFKBIZ-h (all containing 10 µM ASO) were added, respectively. Cells without any treatment were used as a blank reference (Mock). After incubation at 37° C. for 6 h, the cells were transferred into DMEM medium and incubated for another 48 h. The cells were collected and RNA was extracted for RT-qPCR to analyze the expression level of the NFKBIZ mRNA in HCECs, and experimental results were shown in FIG. 9. The expression level of NFKBIZ mRNA in HCECs after LPS stimulation was about 1.3 times that of normal cells. […] After adding CsA-ASONFKBIZ-h for co-incubation, the expression of NFKBIZ mRNA was reduced to about 0.8 times that of normal cells.
(§1) HCECs were inoculated in a 6-well plate at a density of 1×10^5 cells/well and cultured until adherence. The cells were then stimulated with 100 ng/mL LPS overnight. After removing the supernatant, 1 mL of Opti-MEM medium containing ASONFKBIZ-h+Lipo2000 complex and 2CsA-ASONFKBIZ-h nanomicelles (all containing 10 µM ASO) were added, respectively. After incubation at 37° C. for 6 h, the cells were transferred into DMEM medium and incubated for another 48 h. The cells were collected and RNA was extracted for RT-qPCR to analyze the expression level of the NFKBIZ mRNA in HCECs, and experimental results were shown in FIG. 12.
as §1, with “ng/ml” for “ng/mL”, “3CsA-ASONFKBIZ-h” for “2CsA-ASONFKBIZ-h”, “15.” for “12.”
HCECs were inoculated in a 6-well plate at a density of 1×10^5 cells/well and cultured until adherence. The cells were then stimulated with 100 ng/mL LPS overnight. 1 mL of Opti-MEM medium containing ASONFKBIZ-h+Lipo2000 complex and CsA3-ASONFKBIZ-h nanomicelles (all containing 10 µM ASO) were added, respectively. After incubation at […]. 37° C. for 6 h, the cells were transferred into DMEM medium and incubated for another 48 h. After collected and RNA was extracted for RT-qPCR to evaluate the expression level of NFKBIZ mRNA in HCECs, and the experimental results were shown in FIG. 23.
HCECs were inoculated in a 6-well plate at a density of 1×10^5 cells/well and cultured overnight until adherence. The cells were then stimulated with 100 ng/ml LPS for 12 h. After removing the supernatant, 1 mL of Opti-MEM medium containing siRNANFKBIZ-h+Lipo2000 complex and nCsA-siRNANFKBIZ-h (n=1, 2, 3) conjugates and nanomicelles (all containing 10 μM siRNA) were added, respectively. After incubation at 37° C. for 6 h, the cells were transferred into DMEM medium and incubated for another 48 h. The cells were collected and RNA was extracted for RT-qPCR to evaluate the expression of NFKBIZ mRNA in HCECs, and experimental results were shown in FIG. 27. […]

[1] = system: mice with xerophthalmia (0.2% benzalkonium chloride); test: Benzalkonium chloride xerophthalmia mouse model: sodium fluorescein staining and phenol red cotton thread tear test; format: in vivo, mouse (C57BL/6); details: for phenol red cotton thread infiltration length (tear secretion) after 14 d of treatment / sodium fluorescein staining eye score after 14 d of treatment: eye drops 5 μL per eye twice daily, 400 μM CsA (10RAP: 400 μM rapamycin), day 14; for phenol red cotton thread infiltration length (tear secretion), day 0 (before treatment) / sodium fluorescein staining eye score, day 0 (before treatment): xerophthalmia mice, baseline of the treatment group
Protocol: The ocular xerophthalmia model was established in 6-8 weeks old mice (C57BL/6, Suzhou Xishan Biotechnology Co., Ltd.) with 0.2% benzalkonium chloride. 5 μL of 0.2% benzalkonium chloride was dripped into each eye of the mice, once in the morning and once in the evening every day, for two consecutive weeks. After successful modeling, the hospital-prepared CsA eye drops (400 µM CsA, referred to as hospital-prepared CsA eye drops or CsA eye drops, provided by the Eye, Ear, Nose and Throat Hospital Affiliated to Fudan University School of Medicine, Shanghai) and CsA-ASONFKBIZ-m (400 µM CsA) were used for eye drops treatment, 5 μL per eye, once in the morning and once in the evening. Sodium fluorescein staining and phenol red cotton thread tear secretion test were conducted on days 0, 7, and 14 of treatment to evaluate the therapeutic effect.
(§2) The ocular xerophthalmia model was established in 6-8 weeks old mice (C57BL/6, Suzhou Xishan Biotechnology Co., Ltd.) with 0.2% benzalkonium chloride. 5 μL of 0.2% benzalkonium chloride was dripped into each eye of the mice, once in the morning and once in the evening every day, for two consecutive weeks. After successful modeling, the hospital-prepared CsA eye drops (400 μM CsA, provided by the Eye, Ear, Nose and Throat Hospital Affiliated to Fudan University School of Medicine, Shanghai) and 2CsA-ASONFKBIZ-m (400 µM CsA) were used for eye drops treatment, 5 μL per eye, once in the morning and once in the evening. Sodium fluorescein staining and phenol red cotton thread tear secretion test were conducted on days 0, 7, and 14 of treatment to evaluate the therapeutic effect.
as §2, with “µM” for “μM”, “provided” for “provided by”, “3CsA-ASONFKBIZ-m nanomicelles (133 µM ASO concentration, 400” for “2CsA-ASONFKBIZ-m (400”
as §2, with “CsA3-ASONFKBIZ-m nanomicelles” for “2CsA-ASONFKBIZ-m”, “0” for “0, 7,”
The ocular xerophthalmia model was established in 6-8 weeks old mice (C57BL/6, Suzhou Xishan Biotechnology Co., Ltd.) using 0.2% benzalkonium chloride. 5 μL of 0.2% benzalkonium chloride was dripped into each eye of the mouse, once in the morning and once in the evening every day for two weeks. After successful modeling, the hospital-prepared CsA eye drops (400 µM CsA, provided by the Eye, Ear, Nose and Throat Hospital Affiliated to Fudan University School of Medicine, Shanghai) and CsA-siRNANFKBIZ-m (400 µM CsA), 2CsA-siRNANFKBIZ-m nanomicelles (400 µM CsA), 3CsA-siRNANFKBIZ-m nanomicelles (400 µM CsA) were used for eye drops treatment, 5 μL per eye, once in the morning and once in the evening. […]

For “2CsA-ASONFKBIZ-h: two CsA molecules coupled to 2DBCO ASO targeting human NFKBIZ (SEQ ID 3), self-assembled (ATCAGACAACGAATCGGGCNTT; two CsA via DBCO click; modified_base 20 OTHER; n is t base modified with DBCO moiety)”, the “expression of NFKBIZ mRNA relative to normal cells” value (NFKBIZ mRNA) was “about 0.8 times that of normal cells”.

“2CsA-ASONFKBIZ-m: two CsA molecules coupled to 2DBCO ASO targeting mouse NFKBIZ (SEQ ID 4), self-assembled (AATACTGGTACATTGACGCCNTT; two CsA via DBCO click; modified_base 21 OTHER; n is t base modified with DBCO moiety)” was tested, and the “phenol red cotton thread infiltration length (tear secretion) after 14 d of treatment” value [1] was “about 3.5 mm”, the “sodium fluorescein staining eye score after 14 d of treatment” value [1] was “about 3.5 points” and the “phenol red cotton thread infiltration length (tear secretion), day 0 (before treatment)” value [1] was 1.5 mm. The “sodium fluorescein staining eye score, day 0 (before treatment)” value [1] was 6 points.

“2CsA-siRNANFKBIZ-m: two CsA coupled to sense strand of siRNA targeting mouse NFKBIZ (SEQ ID NO: 17/18) (sense GCGUCAAUGUACCAGUAUUUUNUU; antisense AAUACUGGUACAUUGACGCCU; two CsA on sense strand; modified_base 22 OTHER; n is t base modified with DBCO moiety)” was tested, and the “phenol red cotton thread infiltration length (tear secretion) after 14 d of treatment” value [1] was “about 2.5 mm”, the “sodium fluorescein staining eye score after 14 d of treatment” value [1] was “about 2 points” and the “phenol red cotton thread infiltration length (tear secretion), day 0 (before treatment)” value [1] was 1.5 mm. For the same substance, the “sodium fluorescein staining eye score, day 0 (before treatment)” value [1] was 6 points.

In the case of “3CsA-ASONFKBIZ-m: three CsA molecules coupled to 3DBCO ASO targeting mouse NFKBIZ (SEQ ID 6), self-assembled (AATACTGGTACATTGACGCCNTNTT; three CsA via DBCO click; modified_base 21 OTHER; n is t base modified with DBCO moiety; modified_base 23 OTHER)”, the “phenol red cotton thread infiltration length (tear secretion) after 14 d of treatment” value [1] is reported as “about 4 mm”, the “sodium fluorescein staining eye score after 14 d of treatment” value [1] is reported as “about 4 points” and the “phenol red cotton thread infiltration length (tear secretion), day 0 (before treatment)” value [1] is reported as 1.3 mm. For the same substance, the “sodium fluorescein staining eye score, day 0 (before treatment)” value [1] was 10 points.

With “3CsA-siRNANFKBIZ-m: three CsA coupled to sense strand of siRNA targeting mouse NFKBIZ (SEQ ID NO: 19/20) (sense GCGUCAAUGUACCAGUAUUUUNUNUU; antisense AAUACUGGUACAUUGACGCCU; three CsA on sense strand; modified_base 22 OTHER; n is t base modified with DBCO moiety; modified_base 24 OTHER)” the “phenol red cotton thread infiltration length (tear secretion) after 14 d of treatment” value [1] was “about 2.5 mm”, the “sodium fluorescein staining eye score after 14 d of treatment” value [1] was “about 2 points” and the “phenol red cotton thread infiltration length (tear secretion), day 0 (before treatment)” value [1] was 1.5 mm. For the same substance, the “sodium fluorescein staining eye score, day 0 (before treatment)” value [1] was 6 points.

For “CsA-ASONFKBIZ-m: single cyclosporin A (CsA-N3) click-coupled to 3′-DBCO ASO targeting mouse NFKBIZ gene (SEQ ID NO: 2) (AATACTGGTACATTGACGCC; 3'-DBCO ASO click-conjugated to one cyclosporin A, sugar and linkages not given here, further chemistry not given here)”, the “phenol red cotton thread infiltration length (tear secretion) after 14 d of treatment” value [1] was “about 3.2 mm”, the “sodium fluorescein staining eye score after 14 d of treatment” value [1] was “about 3 points” and the “phenol red cotton thread infiltration length (tear secretion), day 0 (before treatment)” value [1] was 1.8 mm. The “sodium fluorescein staining eye score, day 0 (before treatment)” value [1] was 5.5 points.

“CsA-siRNANFKBIZ-m: one CsA coupled to sense strand of siRNA targeting mouse NFKBIZ (SEQ ID NO: 15/16) (sense rGrCrGrUrCrArArUrGrUrArCrCrArGrUrArUrUdTdT; antisense rArArUrArCrUrGrGrUrArCrArUrUrGrArCrGrCdCdT; cyclosporin A clicked onto the sense 3' DBCO group, further chemistry not fully specified)” was tested, and the “phenol red cotton thread infiltration length (tear secretion) after 14 d of treatment” value [1] was “about 2.5 mm”, the “sodium fluorescein staining eye score after 14 d of treatment” value [1] was “about 3 points” and the “phenol red cotton thread infiltration length (tear secretion), day 0 (before treatment)” value [1] was 2 mm. For the same substance, the “sodium fluorescein staining eye score, day 0 (before treatment)” value [1] was 6 points.
